What was measured:
Test in all cases: KINOMEscan competition binding
Details in all cases: compound 10.0 µM
[1] = target: CAMK1G (human) (UniProt Q96NX5)
[2] = target: MAP3K4 (human) (UniProt Q9Y6R4)
[3] = target: TGFBR2 (human) (UniProt P37173)
[4] = target: CDC42BPA (human) (UniProt Q5VT25)
[5] = target: BMPR1B (human) (UniProt O00238)
[6] = target: CSNK1G2 (human) (UniProt P78368)
[7] = target: IGF1R (human) (UniProt P08069)
[8] = target: BRSK2 (human) (UniProt Q8IWQ3)
[9] = target: MAPK1 (human) (UniProt P28482)
[10] = target: CAMK2G (human) (UniProt Q13555)
Sequence of CAMK2G (human) (Q13555 whole entry, looked up): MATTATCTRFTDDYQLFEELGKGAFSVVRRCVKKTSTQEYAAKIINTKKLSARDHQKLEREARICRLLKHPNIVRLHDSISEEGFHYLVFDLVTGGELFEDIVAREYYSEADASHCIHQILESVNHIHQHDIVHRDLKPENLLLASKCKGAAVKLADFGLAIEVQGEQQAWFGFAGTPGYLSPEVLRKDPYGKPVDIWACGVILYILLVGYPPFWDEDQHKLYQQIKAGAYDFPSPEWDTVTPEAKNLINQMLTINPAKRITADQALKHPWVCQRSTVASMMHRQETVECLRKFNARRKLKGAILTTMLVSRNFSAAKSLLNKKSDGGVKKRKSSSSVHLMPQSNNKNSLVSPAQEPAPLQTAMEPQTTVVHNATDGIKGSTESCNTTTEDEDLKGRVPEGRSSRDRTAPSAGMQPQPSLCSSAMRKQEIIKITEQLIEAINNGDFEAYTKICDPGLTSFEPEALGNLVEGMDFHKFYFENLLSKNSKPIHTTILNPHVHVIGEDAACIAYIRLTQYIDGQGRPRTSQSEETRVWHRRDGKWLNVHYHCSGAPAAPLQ

[11] = target: CDK16 (human) (UniProt Q00536)
[12] = target: MAPK12 (human) (UniProt P53778)
[13] = target: MAPK10 (human) (UniProt P53779)
Sequence of MAPK10 (human) (P53779 whole entry, looked up): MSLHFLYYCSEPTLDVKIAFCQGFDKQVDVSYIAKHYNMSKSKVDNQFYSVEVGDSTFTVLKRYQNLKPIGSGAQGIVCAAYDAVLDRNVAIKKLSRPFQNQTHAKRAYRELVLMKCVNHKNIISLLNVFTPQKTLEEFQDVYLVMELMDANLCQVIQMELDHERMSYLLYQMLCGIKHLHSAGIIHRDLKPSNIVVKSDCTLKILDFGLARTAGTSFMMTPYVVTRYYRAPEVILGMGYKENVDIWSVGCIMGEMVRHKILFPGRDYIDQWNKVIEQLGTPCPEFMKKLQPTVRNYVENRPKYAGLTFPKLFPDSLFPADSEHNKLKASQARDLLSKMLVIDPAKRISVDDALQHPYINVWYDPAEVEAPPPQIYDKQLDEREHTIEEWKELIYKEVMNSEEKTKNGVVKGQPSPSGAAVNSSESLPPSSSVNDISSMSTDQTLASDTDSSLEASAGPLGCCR

[14] = target: CDKL1 (human) (UniProt Q00532)
[15] = target: CDKL5 (human) (UniProt O76039)
[16] = target: MAPK3 (human) (UniProt P27361)
[17] = target: PRKD3 (human) (UniProt O94806)
Sequence of PRKD3 (human) (O94806 whole entry, looked up): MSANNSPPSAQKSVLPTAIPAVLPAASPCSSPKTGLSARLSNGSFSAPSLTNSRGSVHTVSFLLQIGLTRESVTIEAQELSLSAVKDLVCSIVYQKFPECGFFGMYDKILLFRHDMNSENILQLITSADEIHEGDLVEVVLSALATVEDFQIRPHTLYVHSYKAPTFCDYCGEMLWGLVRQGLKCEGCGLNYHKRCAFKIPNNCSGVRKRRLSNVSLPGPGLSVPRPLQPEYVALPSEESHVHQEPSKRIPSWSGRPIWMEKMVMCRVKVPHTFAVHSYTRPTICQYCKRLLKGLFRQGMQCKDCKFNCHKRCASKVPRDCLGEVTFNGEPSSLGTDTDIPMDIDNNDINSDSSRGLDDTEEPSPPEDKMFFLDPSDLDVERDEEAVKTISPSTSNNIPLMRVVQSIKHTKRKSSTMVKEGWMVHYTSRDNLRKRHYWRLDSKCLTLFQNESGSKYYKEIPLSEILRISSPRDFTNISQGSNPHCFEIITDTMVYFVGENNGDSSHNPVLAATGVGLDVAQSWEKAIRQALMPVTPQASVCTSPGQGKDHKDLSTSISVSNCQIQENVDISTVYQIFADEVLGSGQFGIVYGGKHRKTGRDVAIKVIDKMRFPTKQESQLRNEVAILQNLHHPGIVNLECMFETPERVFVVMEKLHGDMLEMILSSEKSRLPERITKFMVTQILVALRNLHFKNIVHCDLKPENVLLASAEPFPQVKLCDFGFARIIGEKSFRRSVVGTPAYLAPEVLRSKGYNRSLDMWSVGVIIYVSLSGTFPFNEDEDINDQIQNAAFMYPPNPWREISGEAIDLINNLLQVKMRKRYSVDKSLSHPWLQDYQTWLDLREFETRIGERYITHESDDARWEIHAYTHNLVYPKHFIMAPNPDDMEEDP

[18] = target: LCK (human) (UniProt P06239)
[19] = target: STK39 (human) (UniProt Q9UEW8)
[20] = target: MKNK1 (human) (UniProt Q9BUB5)
[21] = target: CHEK2 (human) (UniProt O96017)
[22] = target: CLK2 (human) (UniProt P49760)
[23] = tested on: CPK1 (P.falciparum)
[24] = target: PDGFRA (human) (UniProt P16234)
[25] = tested on: RET (human), P07949 [V804L]
[26] = target: TAOK3 (human) (UniProt Q9H2K8)
Sequence of TAOK3 (human) (Q9H2K8 whole entry, looked up): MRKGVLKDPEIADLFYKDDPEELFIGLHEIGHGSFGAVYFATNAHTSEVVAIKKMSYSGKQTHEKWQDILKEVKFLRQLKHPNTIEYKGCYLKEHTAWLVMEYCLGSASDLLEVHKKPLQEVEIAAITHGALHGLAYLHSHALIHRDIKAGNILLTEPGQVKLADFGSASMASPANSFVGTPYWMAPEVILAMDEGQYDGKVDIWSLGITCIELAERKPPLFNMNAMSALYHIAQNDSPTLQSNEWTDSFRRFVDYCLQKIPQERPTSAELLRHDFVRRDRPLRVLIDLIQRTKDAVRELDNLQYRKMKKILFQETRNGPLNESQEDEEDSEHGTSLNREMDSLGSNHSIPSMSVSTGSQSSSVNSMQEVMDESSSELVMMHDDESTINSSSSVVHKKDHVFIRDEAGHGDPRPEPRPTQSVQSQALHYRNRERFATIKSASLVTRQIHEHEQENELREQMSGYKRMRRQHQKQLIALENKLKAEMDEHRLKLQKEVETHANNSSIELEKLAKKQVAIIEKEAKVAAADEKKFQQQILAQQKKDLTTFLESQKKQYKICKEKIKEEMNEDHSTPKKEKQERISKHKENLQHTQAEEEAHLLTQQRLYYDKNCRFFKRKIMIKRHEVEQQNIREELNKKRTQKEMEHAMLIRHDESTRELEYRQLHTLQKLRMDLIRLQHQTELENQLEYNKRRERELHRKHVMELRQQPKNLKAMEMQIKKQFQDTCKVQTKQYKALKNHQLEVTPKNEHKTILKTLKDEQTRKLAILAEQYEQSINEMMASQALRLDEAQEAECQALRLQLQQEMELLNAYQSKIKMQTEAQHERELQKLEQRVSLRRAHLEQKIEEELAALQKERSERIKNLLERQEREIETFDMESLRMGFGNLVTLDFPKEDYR

[27] = target: MAPK6 (human) (UniProt Q16659)
[28] = target: RPS6KA4 KD2 (human) (UniProt O75676)
[29] = target: DDR1 (human) (UniProt Q08345)
[30] = target: HCK (human) (UniProt P08631)
[31] = target: STK35 (human) (UniProt Q8TDR2)
Sequence of STK35 (human) (Q8TDR2 whole entry, looked up): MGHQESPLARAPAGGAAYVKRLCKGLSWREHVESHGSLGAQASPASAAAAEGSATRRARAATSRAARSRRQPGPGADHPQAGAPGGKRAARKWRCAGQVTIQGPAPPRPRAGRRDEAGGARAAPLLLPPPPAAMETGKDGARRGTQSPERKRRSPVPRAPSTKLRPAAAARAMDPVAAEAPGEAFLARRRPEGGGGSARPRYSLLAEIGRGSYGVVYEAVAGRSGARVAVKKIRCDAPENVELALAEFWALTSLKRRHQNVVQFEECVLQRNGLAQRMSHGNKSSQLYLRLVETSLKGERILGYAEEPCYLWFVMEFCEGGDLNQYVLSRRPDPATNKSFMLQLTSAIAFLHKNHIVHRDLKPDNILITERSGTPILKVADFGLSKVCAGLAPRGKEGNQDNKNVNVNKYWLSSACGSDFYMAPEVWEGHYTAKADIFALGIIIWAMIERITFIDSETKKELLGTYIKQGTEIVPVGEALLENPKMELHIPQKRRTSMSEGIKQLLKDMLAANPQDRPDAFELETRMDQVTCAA

[32] = target: PRKCI (human) (UniProt P41743)
[33] = target: MYO3B (human) (UniProt Q8WXR4)
[34] = target: TEK (human) (UniProt Q02763)
[35] = target: INSRR (human) (UniProt P14616)
[36] = target: MAP4K2 (human) (UniProt Q12851)
[37] = target: TEC (human) (UniProt P42680)
Sequence of TEC (human) (P42680 whole entry, looked up): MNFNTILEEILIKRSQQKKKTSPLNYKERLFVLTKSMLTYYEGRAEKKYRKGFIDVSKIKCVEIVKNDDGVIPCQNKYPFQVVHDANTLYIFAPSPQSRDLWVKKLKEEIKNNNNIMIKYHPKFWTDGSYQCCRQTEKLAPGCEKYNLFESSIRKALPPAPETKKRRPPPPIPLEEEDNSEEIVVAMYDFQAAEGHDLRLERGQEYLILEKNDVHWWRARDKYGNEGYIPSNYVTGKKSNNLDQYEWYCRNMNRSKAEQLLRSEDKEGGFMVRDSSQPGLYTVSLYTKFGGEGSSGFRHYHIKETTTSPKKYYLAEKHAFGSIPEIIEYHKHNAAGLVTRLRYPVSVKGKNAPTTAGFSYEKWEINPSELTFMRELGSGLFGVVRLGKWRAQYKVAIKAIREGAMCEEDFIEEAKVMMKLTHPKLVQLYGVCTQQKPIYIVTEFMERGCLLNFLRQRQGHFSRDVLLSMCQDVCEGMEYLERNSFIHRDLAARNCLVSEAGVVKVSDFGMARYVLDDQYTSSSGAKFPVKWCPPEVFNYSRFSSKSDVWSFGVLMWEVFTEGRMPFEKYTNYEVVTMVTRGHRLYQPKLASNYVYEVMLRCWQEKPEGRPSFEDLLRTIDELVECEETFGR

[38] = target: PLK1 (human) (UniProt P53350)
[39] = target: STK38L (human) (UniProt Q9Y2H1)
[40] = target: MAP4K4 (human) (UniProt O95819)

Sequence of BRSK2 (human) (Q8IWQ3 whole entry, looked up): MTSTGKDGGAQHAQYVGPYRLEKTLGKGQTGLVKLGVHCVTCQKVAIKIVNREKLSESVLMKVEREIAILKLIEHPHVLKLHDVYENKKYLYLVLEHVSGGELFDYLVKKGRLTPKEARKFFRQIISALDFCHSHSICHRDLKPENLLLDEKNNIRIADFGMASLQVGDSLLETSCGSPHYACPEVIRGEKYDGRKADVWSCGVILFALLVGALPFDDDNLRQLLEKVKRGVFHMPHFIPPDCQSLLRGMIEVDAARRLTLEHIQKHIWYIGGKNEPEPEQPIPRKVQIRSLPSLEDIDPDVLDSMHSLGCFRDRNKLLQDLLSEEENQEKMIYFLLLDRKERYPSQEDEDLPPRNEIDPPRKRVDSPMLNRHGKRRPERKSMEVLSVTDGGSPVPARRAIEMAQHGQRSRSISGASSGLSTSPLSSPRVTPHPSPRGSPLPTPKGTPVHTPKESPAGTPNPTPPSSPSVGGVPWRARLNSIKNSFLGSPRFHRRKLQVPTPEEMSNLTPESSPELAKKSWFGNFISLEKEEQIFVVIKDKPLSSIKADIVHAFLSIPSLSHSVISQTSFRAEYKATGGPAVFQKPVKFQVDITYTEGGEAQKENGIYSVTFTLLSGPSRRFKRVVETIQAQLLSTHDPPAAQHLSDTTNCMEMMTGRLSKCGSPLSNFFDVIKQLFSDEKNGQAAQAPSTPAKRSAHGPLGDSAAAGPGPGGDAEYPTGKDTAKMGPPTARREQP

Row | Structure (SMILES) | kinase still bound, per cent of control [1] [%] | kinase still bound, per cent of control [4] [%] | kinase still bound, per cent of control [5] [%] | kinase still bound, per cent of control [6] [%] | kinase still bound, per cent of control [7] [%] | kinase still bound, per cent of control [8] [%] | kinase still bound, per cent of control [9] [%] | kinase still bound, per cent of control [10] [%] | kinase still bound, per cent of control [11] [%] | kinase still bound, per cent of control [12] [%] | kinase still bound, per cent of control [13] [%] | kinase still bound, per cent of control [14] [%] | kinase still bound, per cent of control [15] [%] | kinase still bound, per cent of control [16] [%] | kinase still bound, per cent of control [17] [%] | kinase still bound, per cent of control [19] [%] | kinase still bound, per cent of control [22] [%] | kinase still bound, per cent of control [23] [%] | kinase still bound, per cent of control [25] [%] | kinase still bound, per cent of control [26] [%] | also measured
1 | CCc1nc(-c2cccc(C)c2)c(-c2ccnc(NC(=O)c3ccccc3)c2)s1 | 97 | 82 | 100 | 19 | 100 | 95 | 96 | 100 | 100 | 100 | 0 | 100 | 100 | 98 | 26 | 100 | 61 | 22 | 99 | 86 | kinase still bound, per cent of control [2]: 85%; kinase still bound, per cent of control [3]: 82%; kinase still bound, per cent of control [18]: 41%; kinase still bound, per cent of control [20]: 100%; kinase still bound, per cent of control [21]: 80%; kinase still bound, per cent of control [24]: 84%; kinase still bound, per cent of control [27]: 85%; kinase still bound, per cent of control [28]: 100%; kinase still bound, per cent of control [29]: 2.8%; kinase still bound, per cent of control [30]: 31%; kinase still bound, per cent of control [31]: 76%; kinase still bound, per cent of control [32]: 100%; kinase still bound, per cent of control [33]: 48%; kinase still bound, per cent of control [34]: 94%; kinase still bound, per cent of control [35]: 100%; kinase still bound, per cent of control [36]: 93%; kinase still bound, per cent of control [37]: 100%; kinase still bound, per cent of control [38]: 100%; kinase still bound, per cent of control [39]: 96%
2 | CC(=O)c1c(C)c2cnc(Nc3ccc(N4CCNCC4)cn3)nc2n(C2CCCC2)c1=O | 20 | 98 | 50 | 92 | 81 | 80 | 73 | 11 | 0.2 | 59 | 0.35 | 35 | 1 | 64 | 0.75 | 6.8 | 0.35 | 46 | 65 | 8.1 | kinase still bound, per cent of control [40]: 23%; kinase still bound, per cent of control [27]: 57%; kinase still bound, per cent of control [28]: 3.2%; kinase still bound, per cent of control [29]: 60%; kinase still bound, per cent of control [31]: 66%; kinase still bound, per cent of control [32]: 57%; kinase still bound, per cent of control [33]: 100%; kinase still bound, per cent of control [35]: 98%; kinase still bound, per cent of control [36]: 52%; kinase still bound, per cent of control [37]: 98%; kinase still bound, per cent of control [38]: 8.4%
3 | COc1cc2ncnc(Nc3cccc(Cl)c3)c2cc1OC | 64 | 77 | 62 | 83 | 100 | 45 | 100 | 77 | 90 | 100 | 9.8 | 90 | 97 | 88 | 88 | 57 | 53 | 34 | 100 | 78 | kinase still bound, per cent of control [2]: 83%; kinase still bound, per cent of control [3]: 91%; kinase still bound, per cent of control [18]: 5.4%; kinase still bound, per cent of control [20]: 4.6%; kinase still bound, per cent of control [21]: 6.7%; kinase still bound, per cent of control [24]: 29%; kinase still bound, per cent of control [27]: 33%; kinase still bound, per cent of control [28]: 91%; kinase still bound, per cent of control [29]: 1.9%; kinase still bound, per cent of control [30]: 6.8%; kinase still bound, per cent of control [31]: 58%; kinase still bound, per cent of control [32]: 80%; kinase still bound, per cent of control [33]: 100%; kinase still bound, per cent of control [34]: 97%; kinase still bound, per cent of control [35]: 100%; kinase still bound, per cent of control [36]: 36%; kinase still bound, per cent of control [37]: 100%; kinase still bound, per cent of control [38]: 92%; kinase still bound, per cent of control [39]: 87%

— the kinase profiling compilation of Christmann-Franck et al. (2016)
